Reference: article PMC5584254, “Identification of novel small molecule Beclin 1 mimetics activating autophagy” (Oncotarget, 2017)
Where a name gives a salt, the structure may show the parent alone.

What was measured:
DU145 = test: MTT-based cytotoxicity assay, DU145; settings: Homo sapiens, DU-145, averages of at least two independent experiments, read-out: Cytotoxicity in different cell lines (IC50, μM) DU145
Excerpt: (§1) Human prostate cancer cell lines PC-3 and DU145, were purchased from American Type Culture Collection (ATCC) and used within 50 passages. PC-3a is a derivative of PC-3 that is resistant to chemo/radiotherapy, established in our lab and confirmed by genotyping. All cells were maintained in DMEM (Mediatech, Manassas, VA) supplemented with 10% fetal bovine serum (FBS) (Sigma-Aldrich, St. Louis, MO), 1% Glutamine (Mediatech, Manassas, VA), 1% antibiotics (Mediatech, Manassas, VA). Compounds for primary FP-based HTS screening were from Prestwick, Microsource, University of Kansas Center of Excellence in Chemical Methodologies & Library Development (KU CMLD, Lawrence, KS), and Chembridge libraries. Compounds for MTT and SPR validation experiment were purchased from Microsource (Gaylordsville, CT) and Hit2lead Company (San Diego, CA). Acridine analogues, compound 1–6, were from our in-house library (provided by Specialized Chemistry Center, University of Kansas, Lawrence, KS); compound 7–17 were synthesized as described in supplementary information. (–)-Gossypol was isolated from racemic gossypol as we previously described. ABT-263 and DMSO were purchased from Sigma. MTT-based cytotoxicity assay and western blot analysis was carried out according to our previous publications. The primary antibodies used were LC3B (#2775) (Cell signaling Technology, Danvers, MA) and β-actin (A5441) (Sigma).

PC-3a = test: MTT-based cytotoxicity assay, PC-3a; settings: Homo sapiens, averages of at least two independent experiments, read-out: Cytotoxicity in different cell lines (IC50, μM) PC-3a
Excerpt: as §1

PC-3 = test: MTT-based cytotoxicity assay, PC-3; settings: Homo sapiens, averages of at least two independent experiments, read-out: Cytotoxicity in different cell lines (IC50, μM) PC-3
Excerpt: as §1

Bcl-xL-Beclin 1 complex [1] = target: T1, Bcl-xL-Beclin 1 complex (Homo sapiens, UniProt Q07817); test: FP-based high-throughput screening, primary screen; format: binding; settings: first screen; 40 μM compound, 2.5 μM Bcl-xL, 400 nM 20-mer
T1 construct: made in house
Excerpt: Next, we optimized the FP competitive binding assay in a 384-well microplate format and carried out a small-scale HTS using a small library, which contains 6580 compounds from Prestwick, Microsource and our in-house CMLD library. Then, the FP assay was optimized and applied in screening the larger Chembridge library consisting of 43736 compounds. HTS cascades are shown in Supplementary Figure 1A–1B. […] All chemical structures can be found on the PubChem website (http://pubchem.ncbi.nlm.nih.gov/).
(§2) Then the plates were read by Envision (Perkin Elmer, Waltham, MA). […] The hits were selected from library stocks and reconfirmed in a concentration response FP assay (6 doses ranging from 5 μM to 160 μM or 8 doses ranging from 0.5 μM to 60 μM).

Bcl-xL-Beclin 1 complex [2] = target: T1, Bcl-xL-Beclin 1 complex; test: Concentration response FP reconfirmation of HTS hits; format: binding; settings: hits of first screen; for inhibition at 5 µM: read-out: Dose-response (% Inhibition) 5 μM; for inhibition at 10 µM: read-out: Dose-response (% Inhibition) 10 μM; for inhibition at 20 µM: read-out: Dose-response (% Inhibition) 20 μM; for inhibition at 40 µM: read-out: Dose-response (% Inhibition) 40 μM; for inhibition at 80 µM: read-out: Dose-response (% Inhibition) 80 μM; for inhibition at 160 µM: read-out: Dose-response (% Inhibition) 160 μM
Experimental: as §2

T1 sequence (Q07817 whole entry, one chain of several): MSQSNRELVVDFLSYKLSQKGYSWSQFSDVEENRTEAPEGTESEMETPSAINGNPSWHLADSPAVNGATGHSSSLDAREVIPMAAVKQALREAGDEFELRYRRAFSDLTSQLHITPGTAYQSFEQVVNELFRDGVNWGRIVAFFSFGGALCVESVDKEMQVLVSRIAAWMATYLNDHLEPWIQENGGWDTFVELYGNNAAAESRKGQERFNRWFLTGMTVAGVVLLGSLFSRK

SMILES | IC50 (DU145) [µM] | IC50 (PC-3a) [µM] | IC50 (PC-3) [µM] | Primary Screen mP (Bcl-xL-Beclin 1 complex [1]) [mP] | inhibition at 40 µM (Bcl-xL-Beclin 1 complex [1]) [%] | inhibition at 5 µM (Bcl-xL-Beclin 1 complex [2]) [%] | inhibition at 10 µM (Bcl-xL-Beclin 1 complex [2]) [%] | inhibition at 20 µM (Bcl-xL-Beclin 1 complex [2]) [%] | inhibition at 40 µM (Bcl-xL-Beclin 1 complex [2]) [%] | inhibition at 80 µM (Bcl-xL-Beclin 1 complex [2]) [%] | inhibition at 160 µM (Bcl-xL-Beclin 1 complex [2]) [%]
CN(CCc1ccc(O)c(O)c1)c1c2ccccc2nc2ccccc12 [Compound 2] | 47 ± 7.39 | 29.2 ± 11.2 | 38.7 ± 5.46 | – | – | – | – | – | – | – | –
COc1cc(Br)c(CCNc2c3ccccc3nc3ccccc23)cc1OC [Compound 4] | 6.33 ± 0.32 | 4.37 ± 0.68 | 4.43 ± 0.46 | – | – | – | – | – | – | – | –
COc1ccc2nc3cc(Cl)ccc3c(NCCOCCO)c2c1 [Compound 8] | 3.68 ± 0.55 | 1.64 ± 0.78 | 1.42 ± 0.73 | – | – | – | – | – | – | – | –
COc1ccc2nc3cc(Cl)ccc3c(Oc3ccccc3)c2c1 [Compound 10] | 77.7 ± 24.2 | 36.1 ± 8.23 | 14.1 ± 0.71 | – | – | – | – | – | – | – | –
COc1ccc2nc3ccccc3c(-c3ccncc3)c2c1 [Compound 12] | 45.4 ± 8.18 | 16.4 ± 2.56 | 21.6 ± 2.24 | – | – | – | – | – | – | – | –
COc1ccc2nc3cc(Cl)ccc3c(-c3ccncc3)c2c1 [Compound 13] | 57 ± 14.5 | 53.9 ± 3.66 | 52.4 ± 10.4 | – | – | – | – | – | – | – | –
COc1ccc2nc3cc(Cl)ccc3c(-c3ccc(NC(=O)OC(C)(C)C)cc3)c2c1 [Compound 16] | 36 ± 14 | 38.7 ± 20.4 | 45 ± 20.2 | – | – | – | – | – | – | – | –
COc1ccc2nc3cc(Cl)ccc3c(-c3ccc(N)cc3)c2c1 [Compound 17] | 53 ± 14.7 | > 100 | 29.5 ± 28.4 | – | – | – | – | – | – | – | –
COc1cccc2c1C(=O)c1c(O)c3c(c(O)c1C2=O)C[C@@](O)(C(=O)CO)C[C@@H]3O[C@H]1C[C@H](N)[C@@H](O)[C@H](C)O1 [Compound A24, EPIRUBICIN HYDROCHLORIDE] | – | – | – | 136.0 | 22.8 | 6.8 | 11.3 | 16.2 | 23.1 | 34.4 | 40.9
COc1cccc2c1C(=O)c1c(O)c3c(c(O)c1C2=O)C[C@@](O)(C(=O)CO)C[C@@H]3O[C@H]1C[C@H](N)[C@H](O)[C@H](C)O1 [Compound A25, DOXORUBICIN HYDROCHLORIDE] | – | – | – | 75.9 | 44 | 18.9 | 29.1 | 36.5 | 41.7 | 48.6 | 53.2
